Results as given in publication PMC7734574 (International Journal of Molecular Sciences, 2020).
pIC50: −log10 of the molar value. Where two headings read alike, the source gives them in different places. Blank lines part the entries; values can stand above or below the compound they belong to.

Assays:
[1] = isomer ratio of the photostationary state by NMR spectroscopy; type: physicochemical
Text: (§1) In order to determine the isomer ratios of the PSS as well as to identify the optimal excitation wavelengths for the E/Z isomerizations, compounds 3–7 were characterized by UV/VIS and NMR spectroscopy. Due to their poor water solubility along with the low molar absorption coefficients of diazocines, all compounds were initially analyzed in DMSO.

[2] = biological target: T1, VEGFR-2 (purified kinase domain, KDR active) (Homo sapiens, UniProt P35968); experiment: luminescence-based ADP-Glo kinase assay under controlled light conditions; type: biochemical; set-up: VEGFR-2 (purified kinase domain, KDR active, Promega); purchased Promega
T1 sequence (P35968 834-1162 limits assumed): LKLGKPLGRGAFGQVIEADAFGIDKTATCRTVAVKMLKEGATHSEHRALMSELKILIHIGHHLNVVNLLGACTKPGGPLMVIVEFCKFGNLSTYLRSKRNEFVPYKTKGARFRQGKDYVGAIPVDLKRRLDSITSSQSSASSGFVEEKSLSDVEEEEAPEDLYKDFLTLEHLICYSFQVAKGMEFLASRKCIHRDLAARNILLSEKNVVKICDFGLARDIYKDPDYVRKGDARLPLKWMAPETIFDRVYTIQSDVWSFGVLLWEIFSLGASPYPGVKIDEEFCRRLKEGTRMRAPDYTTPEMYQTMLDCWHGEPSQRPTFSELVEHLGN

[3] = thermal back isomerization (half-life of the metastable form) by UV/VIS spectroscopy; type: physicochemical; conditions: 37 °C, DMSO (UV/VIS)
Procedure: For the meta-linked derivative 3 (Figure 6a), a maximum shift of the PSS toward the Z-isomer can be achieved by irradiation at 365 nm. By NMR spectroscopy, a Z-isomer content of 83% was determined in the PSS. […] Back switching to the E-isomers E-3 and E-4 is possible by irradiation at 435 nm (3) or 470 nm (4), respectively. Furthermore, half-lives of the azobenzene derivatives were determined by UV/VIS spectroscopy at 37 °C in DMSO.
(§2) UV/VIS spectra were measured using a Varian Cary® 50 Scan UV/VIS photometer from Agilent (Waldbronn, Germany) equipped with a Varian Cary PCB 150 thermostat either at 25 °C or 37 °C. […] The fitting of thermal relaxations was done with GraphPad Prism® (v.7.03, GraphPad Software, San Diego, CA, USA).

[4] = photoswitching followed by UV/VIS spectroscopy; type: physicochemical; conditions: for photoconversion on back switching to the E-isomer: DMSO
Text: as §1
By irradiation at 530 nm, the diazocine-based compounds 5–7 can be switched back quantitatively to the Z-isomer. Since the associated spectra completely overlap with the spectra of the pure Z-isomers, they are not shown for reasons of clarity. To check the reversibility of the photoswitching, long-term stability measurements with 20 switching cycles were performed. For this purpose, the compounds were irradiated alternately for 20 s at 405 nm and 530 nm, respectively. After each irradiation, an UV/VIS spectrum was recorded.
as §2

[5] = biological target: T1, VEGFR-2 (purified kinase domain, KDR active); conditions: cited from earlier work
[6] = axitinib, DMSO (NMR), cited from earlier work
[7] = tested on: lysates of human umbilical vein endothelial cells (HUVECs); experiment: kinome activity profiling (PamGene) of treated cell lysate; type: biochemical; conditions: 20 µM, irradiated at 405 nm, HUVEC lysate, 10% DMSO
[8] = DMSO (NMR), irradiation at 405 nm
[9] = PSS after irradiation at 405 nm, 10% DMSO
[10] = Z-isomer, in the dark (unirradiated), 10% DMSO
[11] = after irradiation at 405 nm, 10% DMSO
[12] = E-isomer, in the dark (unirradiated), 1% DMSO
[13] = both irradiated and unirradiated compounds
[14] = DMSO, NMR, irradiation at 365 nm

PSS (E/Z%) [1, 8]: 25/75 | E-isomer content in the PSS ([1]; DMSO, irradiation at 405 nm): 25% | pIC50 [2, 9]: 6.60 | pIC50 [2, 10]: < 5.00 | residual activity (plateau) [2, 11]: 10% | k of exponential fit of thermal back isomerization [3]: 0.1853
SMILES: CNC(=O)c1ccccc1Sc1ccc2c(-c3ccc4c(c3)CSc3ccccc3/N=N\4)n[nH]c2c1 [Compound 6, (Z)‐2‐((3‐(12H‐dibenzo[b,f][1,4,5]thiadiazocin‐2‐yl)‐1H‐indazol‐6‐yl)thio)‐N‐methylbenzamide]

PSS (E/Z%) ([1]; DMSO (NMR), irradiation at 385 nm): 20/80 | residual activity (plateau) ([2]; E-isomer in the dark): 43% | pIC50 [2, 12]: 5.99 | pIC50 ([2]; PSS after irradiation at 385 nm, 1% DMSO): 5.84 | residual activity (plateau) ([2]; after irradiation at 385 nm): 13% | pIC50 [2, 13]: ~6.00 | k of exponential fit of thermal back isomerization [3]: 0.121 | photoconversion on back switching to the E-isomer ([4]; irradiation at 470 nm): almost quantitative
SMILES: CNC(=O)c1ccccc1Sc1ccc2c(-c3ccc(/N=N/c4ccccc4)cc3)n[nH]c2c1 [Compound 4, (E)‐N‐methyl‐2‐((3‐(4‐(phenyldiazenyl)phenyl)‐1H‐indazol‐6‐yl)thio) benzamide]

pIC50 [2, 12]: 6.38 | spectral change upon irradiation ([4]; 20 µM in DMSO and water with 10 % DMSO, 365, 385, 405, 420 and 470 nm): No spectral change
SMILES: CNC(=O)c1ccccc1Sc1ccc2c(/N=N/c3ccccn3)n[nH]c2c1 [Compound 2, (E)‐N‐methyl‐2‐((3‐(pyridin‐2‐yldiazenyl)‐1H‐indazol‐6‐yl)thio)benzamide]

PSS (E/Z%) [1, 14]: 17/83 | Z-isomer content in the PSS [1, 14]: 83% | residual activity (plateau) ([2]; E-isomer in the dark): 33% | pIC50 [2, 12]: 5.97 | pIC50 ([2]; PSS after irradiation at 365 nm, 1% DMSO): 5.89 | residual activity (plateau) ([2]; after irradiation at 365 nm): 5% | pIC50 [2, 13]: ~6.00 | k of exponential fit of thermal back isomerization [3]: 0.01608 | photoconversion on back switching to the E-isomer ([4]; irradiation at 435 nm): almost quantitative
SMILES: CNC(=O)c1ccccc1Sc1ccc2c(-c3cccc(/N=N/c4ccccc4)c3)n[nH]c2c1 [Compound 3, (E)‐N‐methyl‐2‐((3‐(3‐(phenyldiazenyl)phenyl)‐1H‐indazol‐6‐yl)thio) benzamide]

PSS (E/Z%) [1, 8]: 60/40 | E-isomer content in the PSS ([1]; DMSO, irradiation at 405 nm): 60% | pIC50 [2, 9]: 6.31 | residual activity ([2]; Z-isomer in the dark, 10% DMSO): ≥ 37% | k of exponential fit of thermal back isomerization [3]: 0.4711
SMILES: CNC(=O)c1ccccc1Sc1ccc2c(-c3ccc4c(c3)/N=N\c3ccccc3CC4)n[nH]c2c1 [Compound 7, (Z)‐2‐((3‐(11,12‐dihydrodibenzo[c,g][1,2]diazocin‐3‐yl)‐1H‐indazol‐6‐yl)thio)‐N‐methylbenzamide]

SMILES: CNC(=O)c1ccccc1Sc1ccc2c(/C=C/c3ccccn3)n[nH]c2c1 [Compound 1, Axitinib]
difference in biological activities of Z-axitinib and E-axitinib [5]: 43 fold | PSS (E/Z%) ([6]; 365 nm (E → Z)): 51/49 | PSS (E/Z%) ([6]; 385 nm (Z → E)): 88/12

PSS (E/Z%) [1, 8]: 47/53 | pIC50 [2, 9]: 6.67 | pIC50 [2, 10]: < 5.00 | residual activity (plateau) [2, 11]: 6% | k of exponential fit of thermal back isomerization [3]: 0.09514
SMILES: CNC(=O)c1ccccc1Sc1ccc2c(-c3ccc4c(c3)/N=N\c3ccccc3SC4)n[nH]c2c1 [Compound 5, (Z)‐2‐((3‐(12H‐dibenzo[b,f][1,4,5]thiadiazocin‐3‐yl)‐1H‐indazol‐6‐yl)thio)‐N‐methylbenzamide]
kinase activities (phosphorylation degree of substrate peptides) compared to DMSO [7]: moderate decrease of kinase activities
